Reference: patent publication US9567319B2, “Compound having higher inhibitory activity on protein kinase G and preparation method thereof” (Jenkem Technology Co., Ltd., (Tianjin), priority 2014, dated 2017)
Where “and” joins values, the source holds several entries; their conditions need not be identical. Identical values can stand only once.

Tested on: hyperalgesia induced by Freund's complete adjuvant (CFA) in rats
Experiment: Weight bearing test, CFA induced hyperalgesia in rats
Assay type: in vivo, SD rats
Conditions: for Weight Bearing Test Values (Mean ± SD), Baseline: pretreatment, n=8; for Weight Bearing Test Values (Mean ± SD), 15 min: 15 min post treatment; for Weight Bearing Test Values (Mean ± SD), 2 h: 2 h post treatment
Description: Compounds 46 and JK-02A were prepared according to the disclosure of US patent application No. US2008/0176920, and compound JK-02H was prepared according to Example 1. A repeat efficacy study was carried out on the same batch of animals with a single-dose treatment followed by a washing-out period. The 14 days in life studies included two stages: a single low dose treatment assessment on the 7th day and then a single high dose treatment test on the 14th day after CFA injection. On the 7th day after CFA injection, the rats were randomly assigned to respective groups using a computer generated randomization procedure based on the body weight and the baseline values of Von Frey and weight bearing test. Animals received corresponding single dose treatments (vehicle and 3 test articles) on the 7th and 14th days after CFA injection, respectively, and the effect of the test compounds were evaluated. Hyperalgesia of all the study animals was assessed following a single low dose treatment with the test articles on day 7, while a single high dose effect of the test article was evaluated on day 14. The mechanical hyperalgesia and weight bearing were measured on day 7 and day 14 after CFA injection, followed by administration of control or test articles. Von Frey filaments and weight bearing were measured on all the study animals at three time points on day 7, and four time points on day 14. An extra time point assessment was conducted on day 14, considering the strong analgesic effect of the test articles at a higher dose noticed during the test at the 3th time point. Rats distributed body weight unequally on the CFA-injected and contra lateral paws, which was measured by a weight balance changing instrument (Bio-medical, USA). The animals were tested in a box constructed to register the weight load exerted by the hind paws by means of force plates inserted in the floor. The mean weight bearing (unit in “g”) between the CFA-injected paw and the contra-lateral paw was determined in 10 seconds. The weight bearing test of all study animals was conducted at the same time intervals as the mechanical hyperalgesia test. All the results were expressed as mean±SD. One-way analysis of variance (ANOVA) followed by a multiple comparison test were applied among the groups, p<0.05 accepted as significant.

[1] = day 7 after CFA, single low dose i.v. (46 and JK-02A 10 mg/kg, JK-02H 5 mg/kg)
[2] = day 14 after CFA, single high dose i.v. (46 and JK-02A 40 mg/kg, JK-02H 20 mg/kg)
[3] = individual animal, high dose i.v. (46 and JK-02A 40 mg/kg, JK-02H 20 mg/kg), hydrochloride
[4] = individual animal, low dose i.v. (46 and JK-02A 10 mg/kg, JK-02H 5 mg/kg), hydrochloride

`Cl.O=C(N[C@@H]1CNC[C@H]1NC(=O)c1ccc2cn[nH]c2c1)c1ccc(C(=O)c2c(OCCOCCO)ccc(F)c2F)cc1` [JK-02H, (3R,4R)-3-{4-[2,3-difluoro-6-(5-hydroxy-3-oxapentan-1-oxy)]benzoyl}benzamido-4-(1H-indazole-6-carboxamido)pyrrolidine hydrochloride] was tested, and the “Weight Bearing Test Values (Mean ± SD), Baseline” value (day 7 after CFA, low dose groups (46 and JK-02A 10 mg/kg, JK-02H 5 mg/kg)) was 48.83 ± 9.15 g, the “Weight Bearing Test Values (Mean ± SD), 15 min” value [1] was 25.30 ± 7.97 g and the “Weight Bearing Test Values (Mean ± SD), 2 h” value [1] was 37.43 ± 9.77 g. For the same molecule, the “Weight Bearing Test Values (Mean ± SD), Baseline” value (day 14 after CFA, high dose groups (46 and JK-02A 40 mg/kg, JK-02H 20 mg/kg)) was 46.68 ± 4.82 g, the “Weight Bearing Test Values (Mean ± SD), 15 min” value [2] was 28.55 ± 10.91 g and the “Weight Bearing Test Values (Mean ± SD), 2 h” value [2] was 30.48 ± 7.88 g. For the same molecule, the “Weight Bearing Test Values (Mean ± SD), 5 h” value (day 14 after CFA, single high dose i.v. (46 and JK-02A 40 mg/kg, JK-02H 20 mg/kg), 5 h post treatment) was 37.58 ± 6.58 g, the “Weight Bearing Values of Individual Animal, Day 14, 15 min, Left” value [3] was 59.4 g and 69.4 g and 72.7 g and 72.8 g and 23.1 g and 55.7 g and 42.0 g and 55.0 g and the “Weight Bearing Values of Individual Animal, Day 14, 15 min, Right” value [3] was 82.5 g and 90.8 g and 92.9 g and 99.1 g and 77.6 g and 82.3 g and 70.4 g and 82.9 g. For the same molecule, the “Weight Bearing Values of Individual Animal, Day 14, 15 min, Δ” value [3] was 23.1 g and 21.4 g and 20.2 g and 26.3 g and 54.5 g and 26.6 g and 28.4 g and 27.9 g, the “Weight Bearing Values of Individual Animal, Day 14, 2 h, Left” value [3] was 75.2 g and 69.4 g and 47.2 g and 71.7 g (2×) and 76.8 g and 55.9 g and 47.9 g and the “Weight Bearing Values of Individual Animal, Day 14, 2 h, Right” value [3] was 95.7 g and 104.8 g and 90.0 g and 96.8 g and 99.9 g and 93.7 g and 80.6 g and 98.1 g. For the same molecule, the “Weight Bearing Values of Individual Animal, Day 14, 2 h, Δ” value [3] was 20.5 g and 35.4 g and 42.8 g and 25.1 g and 23.1 g and 37.8 g and 32.7 g and 26.4 g, the “Weight Bearing Values of Individual Animal, Day 14, 5 h, Left” value [3] was 63.5 g and 62.4 g and 66.3 g and 54.9 g and 63.8 g and 57.7 g and 47.6 g and 44.0 g and the “Weight Bearing Values of Individual Animal, Day 14, 5 h, Right” value [3] was 94.2 g and 111.2 g and 105.6 g and 95.6 g and 95.1 g and 88.7 g and 83.3 g and 87.1 g. The “Weight Bearing Values of Individual Animal, Day 14, 5 h, Δ” value [3] was 30.7 g and 48.8 g and 39.3 g and 40.7 g and 31.3 g and 31.0 g and 35.7 g and 43.1 g, the “Weight Bearing Values of Individual Animal, Day 7, 15 min, Left” value [4] was 54.2 g and 73.4 g and 30.9 g and 63.3 g and 46.3 g and 67.8 g and 45.1 g and 60.6 g and the “Weight Bearing Values of Individual Animal, Day 7, 15 min, Right” value [4] was 77.2 g and 99.2 g and 71.7 g and 77.8 g and 72.4 g and 85.5 g and 75.2 g and 85.0 g. For the same molecule, the “Weight Bearing Values of Individual Animal, Day 7, 15 min, Δ” value [4] was 23.0 g and 25.8 g and 40.8 g and 14.5 g and 26.1 g and 17.7 g and 30.1 g and 24.4 g, the “Weight Bearing Values of Individual Animal, Day 7, 2 h, Left” value [4] was 42.3 g and 29.7 g and 57.5 g and 72.9 g and 23.1 g and 37.3 g and 43.5 g and 51.9 g and the “Weight Bearing Values of Individual Animal, Day 7, 2 h, Right” value [4] was 66.8 g and 74.0 g and 106.2 g and 97.7 g and 71.6 g and 77.0 g and 81.2 g and 83.1 g. For the same molecule, the “Weight Bearing Values of Individual Animal, Day 7, 2 h, Δ” value [4] was 24.5 g and 44.3 g and 48.7 g and 24.8 g and 48.5 g and 39.7 g and 37.7 g and 31.2 g, the “First Baseline, Balance Left, individual animal” value (individual animal, pretreatment day 7, left (CFA-injected) hind paw, hydrochloride) was 62.6 g and 45.6 g and 51.0 g and 60.6 g and 48.8 g and 56.5 g and 38.6 g and 64.0 g and the “First Baseline, Balance Right, individual animal” value (individual animal, pretreatment day 7, right hind paw, hydrochloride) was 96.2 g (2×) and 101.1 g and 115.5 g and 89.7 g and 121.0 g and 87.7 g and 110.9 g. The “First Baseline, Balance Δ, individual animal” value (individual animal, pretreatment day 7, right minus left, hydrochloride) was 33.6 g and 50.6 g and 50.1 g and 54.9 g and 40.9 g and 64.5 g and 49.1 g and 46.9 g, the “Second Baseline, Balance Left, individual animal” value (individual animal, pretreatment day 14, left (CFA-injected) hind paw, hydrochloride) was 43.2 g and 65.0 g and 68.9 g and 61.3 g and 47.2 g and 60.6 g and 50.2 g and 51.8 g and the “Second Baseline, Balance Right, individual animal” value (individual animal, pretreatment day 14, right hind paw, hydrochloride) was 86.1 g and 110.8 g and 113.2 g and 115.1 g and 93.6 g and 102.8 g and 93.7 g and 106.3 g. The “Second Baseline, Balance Δ, individual animal” value (individual animal, pretreatment day 14, right minus left, hydrochloride) was 42.9 g and 45.8 g and 44.3 g and 53.8 g and 46.4 g and 42.2 g and 43.5 g and 54.5 g.
